The target of one experiment is T1, COI1/JAZ1 complex (Arabidopsis thaliana, UniProt O04197+Q9LMA8).
T1 construct: Full-length Arabidopsis thaliana COI1 and ASK1 were co-expressed; Full-length JAZ substrate proteins were expressed as 6×His-fusion proteins in Escherichia coli; GST (cleaved yes); 6xHis; made in house; host or cells: Hi5 insect cells (COI1/ASK1); Escherichia coli (JAZ1)
T1 sequence (O04197 1-592): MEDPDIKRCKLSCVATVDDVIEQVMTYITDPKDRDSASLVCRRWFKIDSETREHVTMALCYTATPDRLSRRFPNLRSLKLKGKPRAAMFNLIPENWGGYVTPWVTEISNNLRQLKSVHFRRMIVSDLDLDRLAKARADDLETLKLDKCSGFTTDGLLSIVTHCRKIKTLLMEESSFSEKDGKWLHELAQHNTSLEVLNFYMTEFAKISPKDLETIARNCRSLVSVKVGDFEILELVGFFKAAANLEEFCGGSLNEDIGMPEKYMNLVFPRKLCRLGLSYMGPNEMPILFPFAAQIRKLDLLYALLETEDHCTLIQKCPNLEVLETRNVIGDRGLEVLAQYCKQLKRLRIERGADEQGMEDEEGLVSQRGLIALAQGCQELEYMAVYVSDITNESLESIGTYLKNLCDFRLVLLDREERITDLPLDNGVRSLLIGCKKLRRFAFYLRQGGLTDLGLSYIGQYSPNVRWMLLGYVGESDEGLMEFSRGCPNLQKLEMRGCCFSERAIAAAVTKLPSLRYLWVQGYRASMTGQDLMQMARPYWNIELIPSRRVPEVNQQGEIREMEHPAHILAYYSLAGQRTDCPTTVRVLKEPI
T1 sequence (Q39255 1-160 partner): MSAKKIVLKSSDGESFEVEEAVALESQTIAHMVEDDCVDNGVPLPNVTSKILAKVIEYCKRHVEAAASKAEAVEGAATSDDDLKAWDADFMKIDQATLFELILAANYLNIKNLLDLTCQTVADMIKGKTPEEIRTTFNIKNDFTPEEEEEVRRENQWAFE
T1 sequence (Q9LMA8 1-253): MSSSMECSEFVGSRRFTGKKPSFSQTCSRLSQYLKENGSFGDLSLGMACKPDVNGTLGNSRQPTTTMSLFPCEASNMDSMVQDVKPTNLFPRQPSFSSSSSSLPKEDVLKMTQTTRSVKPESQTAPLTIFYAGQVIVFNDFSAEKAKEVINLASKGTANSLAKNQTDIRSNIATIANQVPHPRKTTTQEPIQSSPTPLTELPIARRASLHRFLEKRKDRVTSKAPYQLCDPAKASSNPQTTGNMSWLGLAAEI
Kind of experiment: Saturation radioligand binding of 3H-coronatine to COI1/ASK1 in the presence of JAZ1. The source says: (§1) (^3H)-labeled coronatine was synthesized by Amersham. Full-length Arabidopsis thaliana COI1 and ASK1 were co-expressed as a glutathione S-transferase (GST) fusion protein and an untagged protein, respectively, in Hi5 suspension insect cells. The COI1/ASK1 complex was isolated from the soluble cell lysate by glutathione affinity chromatography. After on-column tag cleavage by tobacco etch virus protease, the complex was further purified by anion exchange and gel filtration chromatography and concentrated by ultrafiltration to 12-18 mg ml^−1. Full-length JAZ substrate proteins were expressed as 6×His-fusion proteins in Escherichia coli and purified on Ni-NTA resin with subsequent dialysis into 20 mM Tris-HCl, pH 8.0, 200 mM NaCl, and 10% glycerol.
(§2) Radioligand binding was assayed on purified proteins, with 2 mg COI1/ASK1 complex and JAZ proteins at a 1:3 molar ratio. […] Nonspecific binding was determined in the presence of […] coronatine. Competition binding experiments were conducted with serial dilutions of JA-Ile in the presence of 100 nM ^3H coronatine with nonspecific binding determined in the presence of […] coronatine. Total binding was determined in the presence of vehicle only. Two-point binding experiments were performed in the presence of 100 nM or 300 nM ^3H-coronatine with nonspecific binding determined in the presence of 300 mM coronatine. […]

The target of a further experiment is T2, COI1-JAZ6 complex (Arabidopsis thaliana, UniProt O04197+Q9C9E3).
T2 construct: Full-length Arabidopsis thaliana COI1 and ASK1 were co-expressed; Full-length JAZ substrate proteins were expressed as 6×His-fusion proteins in Escherichia coli; GST (cleaved yes); 6xHis; made in house; host or cells: Hi5 insect cells (COI1/ASK1); Escherichia coli (JAZ6)
T2 sequence (O04197 1-592): T1 sequence (O04197 1-592)
T2 sequence (Q39255 1-160 partner): T1 sequence (Q39255 1-160 partner)
T2 sequence (Q9C9E3 1-269): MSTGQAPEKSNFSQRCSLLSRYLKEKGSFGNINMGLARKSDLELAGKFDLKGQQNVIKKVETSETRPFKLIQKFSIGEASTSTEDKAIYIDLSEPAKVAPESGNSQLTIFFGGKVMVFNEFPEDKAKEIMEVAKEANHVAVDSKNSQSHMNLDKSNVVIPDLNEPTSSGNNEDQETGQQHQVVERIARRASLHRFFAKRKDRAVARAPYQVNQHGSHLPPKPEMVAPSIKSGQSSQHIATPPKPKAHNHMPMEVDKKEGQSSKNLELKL
The experiment can be described thus: Saturation radioligand binding of 3H-coronatine to COI1/ASK1 in the presence of JAZ6.
Description: as §1
(§3) Radioligand binding was assayed on purified proteins, with 2 mg COI1/ASK1 complex and JAZ proteins at a 1:3 molar ratio. Reactions were prepared in […] final volume and in a binding buffer containing 20 mM Tris-HCl 200 mM NaCl, and 10% glycerol. Saturation binding experiments were conducted with serial dilutions of 3H-coronatine in binding buffer. Nonspecific binding was determined in the presence of […] coronatine. Competition binding experiments were conducted with serial dilutions of JA-Ile in the presence of 100 nM ^3H coronatine with nonspecific binding determined in the presence of […] coronatine. Total binding was determined in the presence of vehicle only. Two-point binding experiments were performed in the presence of 100 nM or 300 nM ^3H-coronatine with nonspecific binding determined in the presence of […] coronatine. Following incubation with mixing at 4° C., all samples were collected with a cell harvester (Brandel, Gaithersburg, Md.) on polyethyleneimine (Sigma)-treated filters. […] Saturation binding experiments were analyzed by nonlinear regression, competition binding experiments by nonlinear regression with Ki calculation as described previously (Cheng 1973), and concentration-response data by sigmoidal dose-response curve fitting, all using GraphPad Prism version 4.00 for MacOSX.

In the next experiment the target is T3, COI1 (Arabidopsis thaliana, UniProt O04197).
T3 construct: Full-length Arabidopsis thaliana COI1 and ASK1 were co-expressed; GST (cleaved yes); made in house; host or cells: Hi5 insect cells (COI1/ASK1); JAZ peptides synthetic
T3 sequence (O04197 1-592): T1 sequence (O04197 1-592)
T3 sequence (Q39255 1-160 partner): T1 sequence (Q39255 1-160 partner)
Kind of experiment: Radioligand binding of 3H-coronatine to COI1 alone.
Description: as §1, §3

For a further experiment, the target named is T4, full-length JAZ1 (Arabidopsis thaliana, UniProt Q9LMA8).
T4 construct: 6xHis; made in house; host or cells: Escherichia coli
T4 sequence (Q9LMA8 1-253): T1 sequence (Q9LMA8 1-253)
The experiment can be described thus: Radioligand binding of 3H-coronatine to full-length JAZ1 alone.
Description: as §1, §2

One compound from US9297017B2, “Methods and compositions for targeted protein degradation” (University of Washington, priority 2010, dated 2016) can be followed below.

In general, pKd refers to the negative decadic logarithm of the Kd, by convention in mol/L.

pKd: −log10 of the molar value. Values joined by “and” are separate entries in the source; they are usually repeats but may differ in a detail not shown here. Equal values may be shown once. Read-outs that look alike come from different tables or passages of the source.

In the case of `CC[C@H]1C=C(C(=O)N[C@@]2(C(=O)O)C[C@@H]2CC)[C@H]2CCC(=O)[C@H]2C1` [coronatine], the “Binding affinity for COI1/JAZ1 complex” value at COI1/JAZ1 complex is recorded as “high affinity”. Moreover, the pKd was 7.17 and 7.32 at COI1/JAZ1 complex (COI1/JAZ1 complex, listed as 3H-coronatine); 7.32 and 7.17 on COI1-JAZ6 complex (COI1/JAZ6 complex, listed as 3H-coronatine). For the same compound, on COI1-JAZ6 complex, the “Binding affinity for COI1/JAZ6 complex” value is reported as “high affinity”. The “Concentration at which binding reached the level of saturation” value on COI1-JAZ6 complex (COI1/JAZ6 complex) was found to be 300 nM. Besides, the “Specific binding to COI1 alone” value at COI1 (300 nM coronatine) is listed as below 2%. Further, the “Binding affinity for COI1 alone” value at COI1 was “minimal binding affinity”; at COI1 (listed as 3H-coronatine), “no appreciable binding affinity”. Further, the “Binding affinity for JAZ1 alone” value at full-length JAZ1 is “minimal binding affinity”; at full-length JAZ1 (listed as 3H-coronatine), “no appreciable binding affinity”.
